# Assay results from patent US7393812B2, “Methylidene mevalonates and their use as herbicides” (Dow AgroSciences LLC, priority 2004, dated 2008).
# What was measured:
# Format in all cases: in vivo
# [1] = tested on: yellow nutsedge (Cyperus esculentus, CYPES); experiment: Post-emergent evaluation; conditions: after 2 weeks
# Protocol: (§1) Seeds of the desired test plant species were planted in Grace-Sierra MetroMix® 306 planting mixture, which typically has a pH of 6.0 to 6.8 and an organic matter content of about 30 percent, in plastic pots with a surface area of 64 square centimeters. When required to ensure good germination and healthy plants, a fungicide treatment and/or other chemical or physical treatment was applied. The plants were grown for 7-21 days in a greenhouse with an approximate 15 hr photoperiod which was maintained at about 23-29° C. during the day and 22-28° C. during the night. Nutrients and water were added on a regular basis and supplemental lighting was provided with overhead metal halide 1000-Watt lamps as necessary. The plants were employed for testing when they reached the first or second true leaf stage.
# (§2) A weighed amount, determined by the highest rate to be tested, of each test compound was placed in a 20 mL glass vial and was dissolved in 4 mL of a 97:3 v/v (volume/volume) mixture of acetone and dimethyl sulfoxide (DMSO) to obtain concentrated stock solutions. […] The concentrated stock solutions obtained were diluted with an aqueous mixture containing acetone, water, isopropyl alcohol, DMSO, Atplus 411F crop oil concentrate, and Triton X-155 surfactant in a 48.5:39:10:1.5:1.0:0.02 v/v ratio to obtain spray solutions of known concentration. The solutions containing the highest concentration to be tested were prepared by diluting 2 mL aliquots of the stock solution with 13 mL of the mixture and lower concentrations were prepared by serial dilution of the stock solution. Approximately 1.5 mL aliquots of each solution of known concentration were sprayed evenly onto each of the test plant pots using a DeVilbiss atomizer driven by compressed air pressure of 2 to 4 psi ([…]) to obtain thorough coverage of each plant. Control plants were sprayed in the same manner with the aqueous mixture. In this test an application rate of 1 ppm results in the application of approximately 1 g/Ha.
# (§3) The treated plants and control plants were placed in a greenhouse as described above and watered by sub-irrigation to prevent wash-off of the test compounds. After 2 weeks the condition of the test plants as compared with that of the untreated plants was determined visually and scored on a scale of 0 to 100 percent where 0 corresponds to no injury and 100 corresponds to complete kill. Species abbreviations as described for Table I with the following additions: soybean (Glycine max, GLXMA), rape (Brassica napus, BRSNN), chickweed (Stellaria media, STEME), cocklebur (Xanthium strumarium XANST), lambsquarters (Chenopodium album, CHEAL), violet (Viola tricolor, VIOTR), bindweed (Polygonum convolvulus, POLCO), spurge (Euphorbia heterophylla, EPHHL), Canada thistle (Cirsium arvense, CIRAR), corn (Zea mays, ZEAMX), rice (Oryza sativa, ORYSA), wheat (Triticum aestivum, TRZAS), crabgrass (Digitaria sanguinalis, DIGSA), shattercane (Sorghum vulgare, SORVU) and yellow nutsedge (Cyperus esculentus, CYPES).
# (§4) By applying the well-accepted probit analysis as described by J. Berkson in Journal of the American Statistical […], 48, 565 (1953) and by D. Finney in “Probit Analysis” Cambridge University Press (1952), similar data can be used to calculate GR80 values, which are defined as growth reduction factors that correspond to the effective dose of herbicide required to kill or control 80 percent of a target plant. Species abbreviations are as previously defined.
# [2] = tested on: crabgrass (Digitaria sanguinalis, DIGSA); experiment: Post-emergent evaluation; conditions: after 2 weeks
# Protocol: as §1, §2, §3, §4
# [3] = tested on: lambsquarters (Chenopodium album, CHEAL); experiment: Synergistic herbicidal activity, foliar track sprayer; conditions: methylidene mevalonate 933 g ae/ha alone, 14 days, 1% crop oil concentrate
# Protocol: (§5) Methylidene mevalonate alone and in combination with nonanoic acid was applied to the foliage of rapidly growing plant material utilizing a track sprayer calibrated to deliver an application volume of 187 L/ha. These treatments were applied to both broadleaf and grass weed species. All treatments contained 1% crop oil concentrate. Assessment of herbicidal activity was performed visually relative to untreated controls after 14 days incubation in the greenhouse. Species abbreviations are as previously defined.
# [4] = tested on: wild oats (Avena fatua, AVEFA); experiment: as above; conditions: methylidene mevalonate 933 g ae/ha alone, 14 days, 1% crop oil concentrate
# Protocol: as §5
# [5] = tested on: morningglory (Ipomoea hederacea, IPOHE); experiment: as above; conditions: methylidene mevalonate 933 g ae/ha alone, 14 days, 1% crop oil concentrate
# Protocol: as §5
# [6] = tested on: crabgrass (Digitaria sanguinalis, DIGSA); experiment: as above; conditions: methylidene mevalonate 933 g ae/ha alone, 14 days, 1% crop oil concentrate
# Protocol: as §5
smiles,measurement,setting,value
"C=C(CO)C(C)(O)CC(=O)O (centres unmarked) [methylidene mevalonate, 3-hydroxy-4-(hydroxymethyl)-3-methylpent-4-enoic acid]",Postemergent % Control,[1]; spray concentration 125 ppm,30%
same,Postemergent % Control,[1]; spray concentration 250 ppm,70%
same,Postemergent % Control,[1]; spray concentration 500 ppm,90%
same,Postemergent % Control,[1]; spray concentration 1000 ppm,95%
same,Postemergent % Control,[1]; spray concentration 2000 ppm,95%
same,Postemergent % Control,[2]; spray concentration 125 ppm,0%
same,Postemergent % Control,[2]; spray concentration 250 ppm,10%
same,Postemergent % Control,[2]; spray concentration 500 ppm,50%
same,Postemergent % Control,[2]; spray concentration 1000 ppm,70%
same,Postemergent % Control,[2]; spray concentration 2000 ppm,80%
same,Actual Injury % growth reduction,[3],0%
same,Actual Injury % growth reduction,[4],35%
same,Actual Injury % growth reduction,[5],60%
same,Actual Injury % growth reduction,[6],35%
